What all share (format): physicochemical
Series [1] is described as follows: Dissolution in water on pH adjustment with NaOH. The conditions noted are these: 5 mg/mL in water, pH adjusted to 7.0-7.5 with NaOH. The procedure:
The lyophilized peptide amphiphile powder was weighed and re-dissolved in USP pharmaceutical grade water at a concentration of 5 mg/mL. The colloidal suspension obtained was agitated in an ultrasonic bath for 30 min.

Series [2] in a line: Solubility in aqueous ammonium hydroxide buffer. Conditions: for solubility: water containing 0.1 vol % ammonium hydroxide, water containing 0.1% by volume ammonium hydroxide. The protocol:
SEQ ID NO:2 or SEQ ID NO:4 was dissolved at 20 mg/mL in an aqueous solution with sufficient ammoniumhydroxide to obtain a pH of 9. This solution was purified in 5 mL aliquots using an Agilent, Inc. model 1100 preparative HPLC equipped with a Phenomenex, Inc. Gemini® 5 μm C18 column (100×30 mm). An elution gradient of water and acetonitrile (each containing 0.1 vol % ammonium hydroxide buffer) was used, as shown in FIG. 2A. The flow rate was 15 mL/min, and the mobile phase was pre-heated to ca. 45° C. using a Timberline Instruments TL-105 column heater.
While the amino acid sequence change between SEQ ID NO:2 and SEQ ID NO:6 appears at first glance to be relatively minor, it nevertheless confers several important and unexpected consequences. The additional glutamic acid residue increases the aqueous solubility and broadens the type of aqueous buffers in which the molecule is soluble. Absent this modification, the only amino acid side chains that are ionized under physiological conditions in SEQ ID NO:6 form a zwitterion (e.g. Glu-Ile-Lys), which limits the molecule's solubility in most aqueous buffers. […] This change has important implications for the manufacturability and clinical development of the peptide amphiphile, as solubility in an ammonium hydroxide buffer greatly facilitates purification by HPLC.
This seemingly insignificant modification (the deletion of one methylene group from the residue) results in a greater than 20-fold increase in aqueous solubility of the peptide amphiphile in an ammonium hydroxide buffer, greatly facilitating purification by HPLC (see FIG. 2D).

The nature of series [3]: Gelation kinetics and rheological properties of gels formed in artificial cerebrospinal fluid (rheometer). Conditions: for tan(δ) (loss modulus divided by storage modulus): gel in artificial cerebrospinal fluid. The protocol: Chemical structures for these molecules are also depicted in FIG. 1. Experiments were performed to examine the gelation kinetics and rheological properties of SEQ ID NO:2 with SEQ ID NO:6. Peptide amphiphile samples were dissolved in water at a concentration of 10 mg/mL.
A Physica, Inc. MCR 300 Molecular Compact Rheometer equipped with a 25 mm plate was used to measure stiffness of gels formed by SEQ ID NO:2 and SEQ ID NO:6 in vitro. Samples were measured at 21° C., 0.5% shear strain, with a frequency (ω) of 10 Hz and a gap between the plates of 0.5 mm. G′ (storage modulus) and […] were measured with respect to time post-gelation.
Tan(δ) (defined as the loss modulus divided by the storage modulus) quantifies the balance between energy loss and energy storage in a material, regardless of viscosity.

Where [4] appears, read: 21° C., 0.5% shear strain, 10 Hz.

SMILES strings stand for the structures. Entries after “also recorded” stand apart in the source; their conditions may differ. Where a SMILES comes first, the peptide text is derived from it. The star is where a group is joined. Palmitoyl = CCCCCCCCCCCCCCCC(=O)* A value given as a limit tells only on which side of the number the result lay.

With `CCCCCCCCCCCCCCCC(=O)N[C@@H](CO)C(=O)N[C@@H](CC(C)C)C(=O)N[C@@H](CO)C(=O)N[C@@H](CC(C)C)C(=O)N[C@@H](C)C(=O)N[C@@H](C)C(=O)N[C@@H](C)C(=O)N[C@@H](CC(=O)O)C(=O)N[C@H](C(=O)N[C@@H](CCCCN)C(=O)N[C@H](C(=O)N[C@@H](C)C(=O)N[C@H](C(=O)O)C(C)C)C(C)C)[C@@H](C)CC` [SEQ ID NO:4, C16H31O-Ser-Leu-Ser-Leu-Ala-Ala-Ala-Asp-Ile-Lys-Val-Ala-Val-OH] (Palmitoyl-SLSLAAADIKVAV-OH), the “dissolution of colloidal suspension on pH adjustment” value in series [1] was “go readily into solution”. For the same compound, the “increase in aqueous solubility relative to SEQ ID NO:6” value in series [2] (ammonium hydroxide buffer) was “greater than 20 fold”. For the same compound, the solubility in series [2] is over 20 mg/mL.

For `CCCCCCCCCCCCCCCC(=O)N[C@@H](CO)C(=O)N[C@@H](CC(C)C)C(=O)N[C@@H](CO)C(=O)N[C@@H](CC(C)C)C(=O)N[C@@H](C)C(=O)N[C@@H](C)C(=O)N[C@@H](C)C(=O)N[C@@H](CCC(=O)O)C(=O)N[C@H](C(=O)N[C@@H](CCCCN)C(=O)N[C@H](C(=O)N[C@@H](C)C(=O)N[C@H](C(=O)O)C(C)C)C(C)C)[C@@H](C)CC` [SEQ ID NO:6, C16H31O-Ser-Leu-Ser-Leu-Ala-Ala-Ala-Glu-Ile-Lys-Val-Ala-Val-OH, reference compound] (Palmitoyl-SLSLAAAEIKVAV-OH), the “solubility (in words)” value in series [2] (0.1 vol % ammonium hydroxide aqueous buffer) is recorded as “relatively low solubility; also recorded: only sparingly soluble”. The solubility in series [2] is under 1 mg/mL. For the same compound, in series [3] (setting [4]), the “tan(δ) (loss modulus divided by storage modulus)” value is listed as “liquid-like”.

Regarding `CCCCCCCCCCCCCCCC(=O)N[C@@H](CO)C(=O)N[C@@H](CC(C)C)C(=O)N[C@@H](CO)C(=O)N[C@@H](CC(C)C)C(=O)N[C@@H](C)C(=O)N[C@@H](C)C(=O)N[C@@H](C)C(=O)N[C@@H](CCC(=O)O)C(=O)N[C@@H](CCC(=O)O)C(=O)N[C@H](C(=O)N[C@@H](CCCCN)C(=O)N[C@H](C(=O)N[C@@H](C)C(=O)N[C@H](C(=O)O)C(C)C)C(C)C)[C@@H](C)CC` [SEQ ID NO:2, C16H31O-Ser-Leu-Ser-Leu-Ala-Ala-Ala-Glu-Glu-Ile-Lys-Val-Ala-Val-OH] (Palmitoyl-SLSLAAAEEIKVAV-OH), in series [1], the “dissolution of colloidal suspension on pH adjustment” value is reported as “go readily into solution”. Besides, the solubility in series [2] was over 20 mg/mL. For the same compound, the “self-assembly / gel formation induced by artificial CSF” value in series [3] (10 mg/mL in water mixed with equal volume of artificial CSF) is given as “resulting in a gel with the desired properties”. In series [3] (setting [4]), the “tan(δ) (loss modulus divided by storage modulus)” value is reported as “significantly lower”. For the same compound, the “complex shear modulus (G*) compared with SEQ ID NO:6” value in series [3] (one hour post-gelation, 10 mg/mL solution mixed with equal volume of artificial CSF, 21° C., 0.5% shear strain, 10 Hz) is recorded as “an order of magnitude greater”.

The solubility is how much of the substance goes into solution per volume. Read a low solubility as little dissolved substance.

The record behind these values is patent US8076295B2, “Peptide amphiphiles having improved solubility and methods of using same” (Nanotope, Inc., priority 2007, dated 2011).
